Assay results reported in the NIST ThermoML archive (doi:10.1016/j.jct.2005.10.006).
Where “and” joins values, the source holds several entries; their conditions need not be identical. Equal entries are not always repeated.

Test: xn = mol fraction of the nth substance listed
Details: Fluid (supercritical or subcritical phases), Spherical resonator

N#N [nitrogen] + C
Details | speed of sound
170 K, 124.7 kPa, x1 = 0.5422 | 291.53 m/s
170 K, 150 kPa, x1 = 0.5422 | 291.29 m/s
170 K, 174.8 kPa, x1 = 0.5422 | 291.06 m/s
170 K, 199.8 kPa, x1 = 0.5422 | 290.83 m/s
170 K, 224.8 kPa, x1 = 0.5422 | 290.59 m/s
170 K, 249.8 kPa, x1 = 0.5422 | 290.36 m/s
170 K, 279.7 kPa, x1 = 0.5422 | 290.07 m/s
170 K, 280 kPa, x1 = 0.5422 | 290.07 m/s
170 K, 409.7 kPa, x1 = 0.5422 | 288.85 m/s
170 K, 409.8 kPa, x1 = 0.5422 | 288.85 m/s
170 K, 680.3 kPa, x1 = 0.5422 | 286.28 m/s
170 K, 680.4 kPa, x1 = 0.5422 | 286.28 m/s
170 K, 1293 kPa, x1 = 0.5422 | 280.36 m/s
170 K, 2374 kPa, x1 = 0.5422 | 269.67 m/s and 269.68 m/s
170 K, 3248 kPa, x1 = 0.5422 | 261.01 m/s
170 K, 3249 kPa, x1 = 0.5422 | 260.99 m/s
170 K, 3953 kPa, x1 = 0.5422 | 254.33 m/s
170 K, 3954 kPa, x1 = 0.5422 | 254.32 m/s
170 K, 4555 kPa, x1 = 0.5422 | 249.39 m/s
170 K, 4572 kPa, x1 = 0.5422 | 249.51 m/s
190 K, 311.9 kPa, x1 = 0.5422 | 307.35 m/s
190 K, 457.6 kPa, x1 = 0.5422 | 306.42 m/s
190 K, 762.5 kPa, x1 = 0.5422 | 304.49 m/s
190 K, 1464 kPa, x1 = 0.5422 | 300.13 m/s
190 K, 2748 kPa, x1 = 0.5422 | 292.7 m/s
190 K, 3852 kPa, x1 = 0.5422 | 287.32 m/s
190 K, 4810 kPa, x1 = 0.5422 | 284.03 m/s
190 K, 5716 kPa, x1 = 0.5422 | 282.84 m/s
215 K, 351.4 kPa, x1 = 0.5422 | 327.5 m/s
215 K, 516.2 kPa, x1 = 0.5422 | 326.87 m/s
215 K, 863.4 kPa, x1 = 0.5422 | 325.57 m/s
215 K, 1672 kPa, x1 = 0.5422 | 322.77 m/s
215 K, 3199 kPa, x1 = 0.5422 | 318.49 m/s
215 K, 4573 kPa, x1 = 0.5422 | 316.24 m/s
215 K, 5826 kPa, x1 = 0.5422 | 316.02 m/s
215 K, 7070 kPa, x1 = 0.5422 | 317.96 m/s
220 K, 99.6 kPa, x1 = 0.2 | 363.86 m/s
220 K, 101.5 kPa, x1 = 0.2 | 363.89 m/s
220 K, 200 kPa, x1 = 0.1 | 374.49 m/s
220 K, 249.1 kPa, x1 = 0.2 | 362.81 m/s
220 K, 249.2 kPa, x1 = 0.2 | 362.81 m/s
220 K, 249.5 kPa, x1 = 0.2 | 362.85 m/s
220 K, 498.6 kPa, x1 = 0.2 | 361.06 m/s
220 K, 498.8 kPa, x1 = 0.2 | 361.05 m/s
220 K, 499.1 kPa, x1 = 0.2 | 361.09 m/s
220 K, 501.4 kPa, x1 = 0.1 | 371.96 m/s
220 K, 998.6 kPa, x1 = 0.2 | 357.56 m/s
220 K, 999.3 kPa, x1 = 0.2 | 357.56 m/s
220 K, 1001 kPa, x1 = 0.1 | 367.77 m/s
220 K, 1003 kPa, x1 = 0.2 | 357.57 m/s
220 K, 2006 kPa, x1 = 0.2 | 350.72 m/s
220 K, 2007 kPa, x1 = 0.1 | 359.38 m/s
220 K, 2008 kPa, x1 = 0.2 | 350.73 m/s
220 K, 3014 kPa, x1 = 0.2 | 344.27 m/s
220 K, 3016 kPa, x1 = 0.2 | 344.28 m/s
220 K, 3018 kPa, x1 = 0.1 | 351.21 m/s
220 K, 4002 kPa, x1 = 0.2 | 338.63 m/s
220 K, 4034 kPa, x1 = 0.2 | 338.48 m/s
220 K, 4040 kPa, x1 = 0.1 | 343.53 m/s
220 K, 5057 kPa, x1 = 0.2 | 333.84 m/s
220 K, 6079 kPa, x1 = 0.2 | 331.09 m/s
220 K, 6099 kPa, x1 = 0.1 | 332.63 m/s
220 K, 7000 kPa, x1 = 0.2 | 331.07 m/s
220 K, 7981 kPa, x1 = 0.2 | 334.7 m/s
220 K, 8215 kPa, x1 = 0.1 | 339.23 m/s
220 K, 9000 kPa, x1 = 0.2 | 343.57 m/s
220 K, 9974 kPa, x1 = 0.2 | 357.39 m/s
220 K, 10421 kPa, x1 = 0.1 | 383.6 m/s
220 K, 10996 kPa, x1 = 0.2 | 376.87 m/s
220 K, 12068 kPa, x1 = 0.2 | 401.11 m/s
220 K, 12996 kPa, x1 = 0.2 | 423.71 m/s
220 K, 14014 kPa, x1 = 0.2 | 449.03 m/s
220 K, 14274 kPa, x1 = 0.1 | 498.94 m/s
220 K, 14891 kPa, x1 = 0.2 | 470.66 m/s
220 K, 16024 kPa, x1 = 0.2 | 497.89 m/s
220 K, 16645 kPa, x1 = 0.1 | 562.65 m/s
220 K, 17031 kPa, x1 = 0.2 | 521.17 m/s
220 K, 18043 kPa, x1 = 0.1 | 596.39 m/s
220 K, 18088 kPa, x1 = 0.2 | 544.6 m/s
220 K, 19087 kPa, x1 = 0.2 | 565.86 m/s
220 K, 19556 kPa, x1 = 0.2 | 575.49 m/s
220 K, 19985 kPa, x1 = 0.1 | 639.27 m/s
220 K, 25037 kPa, x1 = 0.2 | 675.84 m/s
220 K, 30201 kPa, x1 = 0.2 | 753.84 m/s
250 K, 99.6 kPa, x1 = 0.2 | 387.32 m/s
250 K, 105 kPa, x1 = 0.2 | 387.33 m/s
250 K, 199.6 kPa, x1 = 0.1 | 398.92 m/s
250 K, 249.1 kPa, x1 = 0.2 | 386.69 m/s
250 K, 249.5 kPa, x1 = 0.2 | 386.7 m/s
250 K, 405.3 kPa, x1 = 0.5422 | 353.38 m/s
250 K, 498.3 kPa, x1 = 0.2 | 385.62 m/s
250 K, 499.1 kPa, x1 = 0.1 | 397.32 m/s
250 K, 499.1 kPa, x1 = 0.2 | 385.63 m/s
250 K, 596.4 kPa, x1 = 0.5422 | 353.08 m/s
250 K, 998.2 kPa, x1 = 0.2 | 383.53 m/s
250 K, 998.9 kPa, x1 = 0.2 | 383.54 m/s
250 K, 999.8 kPa, x1 = 0.1 | 394.71 m/s
250 K, 1001 kPa, x1 = 0.5422 | 352.48 m/s
250 K, 1955 kPa, x1 = 0.5422 | 351.35 m/s
250 K, 2002 kPa, x1 = 0.2 | 379.64 m/s
250 K, 2004 kPa, x1 = 0.1 | 389.75 m/s
250 K, 2005 kPa, x1 = 0.2 | 379.64 m/s
250 K, 2974 kPa, x1 = 0.1 | 385.4 m/s
250 K, 3002 kPa, x1 = 0.2 | 376.26 m/s
250 K, 3014 kPa, x1 = 0.2 | 376.24 m/s
250 K, 3805 kPa, x1 = 0.5422 | 350.46 m/s
250 K, 4021 kPa, x1 = 0.2 | 373.48 m/s
250 K, 4026 kPa, x1 = 0.2 | 373.48 m/s
250 K, 4027 kPa, x1 = 0.1 | 381.43 m/s
250 K, 4989 kPa, x1 = 0.2 | 371.62 m/s
250 K, 5030 kPa, x1 = 0.2 | 371.55 m/s
250 K, 5041 kPa, x1 = 0.1 | 378.44 m/s
250 K, 5536 kPa, x1 = 0.5422 | 351.48 m/s
250 K, 5903 kPa, x1 = 0.2 | 370.69 m/s
250 K, 6000 kPa, x1 = 0.2 | 370.66 m/s
250 K, 6066 kPa, x1 = 0.1 | 376.58 m/s
250 K, 7002 kPa, x1 = 0.2 | 370.93 m/s
250 K, 7089 kPa, x1 = 0.1 | 376.21 m/s
250 K, 7176 kPa, x1 = 0.5422 | 354.43 m/s
250 K, 8018 kPa, x1 = 0.2 | 372.66 m/s
250 K, 8117 kPa, x1 = 0.1 | 377.7 m/s
250 K, 8849 kPa, x1 = 0.5422 | 359.54 m/s
250 K, 8859 kPa, x1 = 0.5422 | 359.5 m/s
250 K, 9001 kPa, x1 = 0.2 | 375.95 m/s
250 K, 9155 kPa, x1 = 0.1 | 381.49 m/s
250 K, 10175 kPa, x1 = 0.2 | 382.17 m/s
250 K, 10204 kPa, x1 = 0.1 | 387.94 m/s
250 K, 11195 kPa, x1 = 0.2 | 389.7 m/s
250 K, 11238 kPa, x1 = 0.1 | 397.06 m/s
250 K, 12284 kPa, x1 = 0.1 | 408.99 m/s
250 K, 13078 kPa, x1 = 0.2 | 408.65 m/s
250 K, 13320 kPa, x1 = 0.1 | 423.21 m/s
250 K, 14003 kPa, x1 = 0.2 | 420.05 m/s
250 K, 14166 kPa, x1 = 0.1 | 436.28 m/s
250 K, 15044 kPa, x1 = 0.1 | 450.92 m/s
250 K, 15316 kPa, x1 = 0.2 | 438.11 m/s
250 K, 16059 kPa, x1 = 0.2 | 449.07 m/s
250 K, 16075 kPa, x1 = 0.1 | 469.1 m/s
250 K, 17054 kPa, x1 = 0.2 | 464.35 m/s
250 K, 17093 kPa, x1 = 0.1 | 487.71 m/s
250 K, 18084 kPa, x1 = 0.1 | 506.09 m/s
250 K, 18089 kPa, x1 = 0.2 | 480.72 m/s
250 K, 18990 kPa, x1 = 0.1 | 522.94 m/s
250 K, 19031 kPa, x1 = 0.2 | 495.86 m/s
250 K, 19850 kPa, x1 = 0.2 | 509.09 m/s
250 K, 19992 kPa, x1 = 0.1 | 541.47 m/s
250 K, 25516 kPa, x1 = 0.1 | 637.9 m/s
